According to patent EP4603099A1 (priority 2022, dated 2024):
pIC50: −log10 of the molar value. Entries after “also recorded” stand apart in the source; their conditions may differ.

What was measured:
[1] = system: IAV (H1N1, seasonal isolated strain in 2019); format: cell-based, influenza A virus; conditions: human lung explant, 10 µM TFMT; compared with untreated sample
human Mtr1 [2] = target: T1, human Mtr1 (Homo sapiens, UniProt Q8N1G2); test: methyltransferase (MTase) activity assay; conditions: 0.8 µM human MTr1, cap0 RNA, SAM[3H], 37°C overnight
T1 sequence (Q8N1G2 1-835): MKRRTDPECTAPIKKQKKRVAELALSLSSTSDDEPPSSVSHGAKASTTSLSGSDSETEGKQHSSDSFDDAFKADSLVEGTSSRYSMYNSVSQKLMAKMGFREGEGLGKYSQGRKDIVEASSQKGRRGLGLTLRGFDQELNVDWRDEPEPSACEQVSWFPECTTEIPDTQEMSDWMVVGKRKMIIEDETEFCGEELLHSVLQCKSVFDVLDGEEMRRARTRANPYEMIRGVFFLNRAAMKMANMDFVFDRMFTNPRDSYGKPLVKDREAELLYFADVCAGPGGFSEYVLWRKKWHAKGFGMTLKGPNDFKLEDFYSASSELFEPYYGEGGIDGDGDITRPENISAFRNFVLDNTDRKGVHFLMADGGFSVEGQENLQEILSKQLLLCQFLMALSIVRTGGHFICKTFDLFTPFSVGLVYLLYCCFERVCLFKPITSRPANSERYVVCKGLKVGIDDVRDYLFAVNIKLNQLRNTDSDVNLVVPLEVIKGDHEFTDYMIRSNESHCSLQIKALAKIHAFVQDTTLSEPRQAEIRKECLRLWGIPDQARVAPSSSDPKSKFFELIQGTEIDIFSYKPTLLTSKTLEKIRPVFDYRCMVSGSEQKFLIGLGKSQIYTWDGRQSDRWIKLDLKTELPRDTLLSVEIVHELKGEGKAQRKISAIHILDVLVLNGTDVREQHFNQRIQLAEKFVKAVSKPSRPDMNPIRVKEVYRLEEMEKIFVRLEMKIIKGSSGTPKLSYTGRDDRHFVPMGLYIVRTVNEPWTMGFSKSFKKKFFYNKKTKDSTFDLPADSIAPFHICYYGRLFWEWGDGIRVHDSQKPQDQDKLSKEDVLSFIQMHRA
Experimental: The synthesized RNA, 3'-O-Me-m7GpppGpG (pN27), was used in a methyltransferase activity assay of human MT r1.
The reaction sample was purified using a mini quick oligo column (Roche, 11814397001), and free SAM [3H] was removed. The purified sample was diluted with ULTIMA GOLD (PerkinElmer, 6013329), and the methyltransferase activity was measured in terms of the number of disintegrations per minute (DPM) by using a scintillation counter LS6500 (Beckman Coulter).

human Mtr1 [3] = target: T1, human Mtr1; test: thermal shift assay using SYPRO Orange; conditions: ribavirin as control
IAV-GFP SC35M strain = format: cell-based, influenza A virus
[4] = in vivo toxicity in mouse, nasal cavity inoculation, change in body weight; conditions: 2 mg/kg intranasally on day 0 and day 1, C57BL/6 mice
Experimental: Next, the in vivo toxicity in the mouse was evaluated by carrying out nasal cavity inoculation once a day for two days.
TFMT or tubercidin at 2 mg/kg was intranasally administered to C57BL/6 mice on the 0th day of infection and the 1st day of infection (indicated by arrows in the figure).

IBV = test: qRT-PCR analysis of IBV RNA in infected A549 cells; format: cell-based, influenza B virus
Experimental: (§1) The cells were recovered with TRIzol (Invitrogen, 15596), and RNA was extracted according to the manufacturer's protocol. The cDNA was purified using a High-Capacity cDNA Reverse Transcription Kit (Applied Biosystems, 43688). Quantitative reverse transcription polymerase chain reaction (qRT-PCR) was carried out using a Fast SYBR Green Master Mix (Applied Biosystems, 4385614) or a TaqMan Fast Advanced Master Mix (Applied Biosystems, 4444558).

HAZV [5] = format: cell-based, Hazara virus
STBV = test: qRT-PCR analysis of STBV RNA in infected A549 cells; format: cell-based, Soft tick bunya virus; conditions: A549, m.o.i. 0.1, 24 hours
Experimental: as §1

IFN-β RNA = test: qRT-PCR analysis of IFN-β RNA and other host RNAs in A549 cells; format: cell-based, human; conditions: A549 infected or not with IAV PR8 (m.o.i. 1), 10 µM TFMT
Experimental: as §1
1 was analyzed in the presence or absence of 10 µM TFMT.
Each RNA indicated in the figure at the indicated moment at the m.o.i. of 1, in A549 cells which had been infected or not infected with the IAV PR8 strain in the presence or absence of 10 µM TFMT, was analyzed.

HAZV [6] = format: cell-based, Hazara virus; remark: listed apart in the source
IAV PR8 strain [7] = system: IAV PR8 strain
IAV WSN = test: mouse in vivo IAV infection model, qRT-PCR of IAV RNA in lung tissue; parameters: species or system C57BL/6 mice; conditions: 2 mg/kg intranasally on day 0 and day 1; 2 days after infection, 5 × 10^3 PFU
Experimental: As shown in the figure, the IAV WSN and TFMT were introduced into the nasal cavity. TFMT was added on the 0th day of the IAV WSN infection and the 1st day of the IAV WSN infection.
qRT-PCR analysis (5 × 10^3 PFU) of IAV RNA in the lung tissue of the IAV-infected C57BL/6 mice on the 2nd day was carried out. TFMT of 2 mg/kg was intranasally administered on the 0th day of infection and the 1st day of infection. […] (*p < 0.05, **p < 0.01).

IAV PR8 strain [8] = format: cell-based, influenza A virus
[9] = NHBE cells, m.o.i. 1, 24 hours, […]

With `Nc1ncnc2c1c(C(F)(F)F)cn2[C@@H]1O[C@H](CO)[C@@H](O)[C@H]1O` [TFMT, trifluoromethyl tubercidin] the “virus titer, second figure printed in the same sentence ('and was 100 to 1,000')” value [1] was 100 to 1,000.

With `Nc1ncnc2c1ccn2[C@@H]1O[C@H](CO)[C@@H](O)[C@H]1O` [tubercidin] the “MTase activity of the recombinant MTr1 protein” value (human Mtr1 [2]) was “inhibits the MTase activity of the recombinant MTr1 protein in a dosage-dependent manner”, the “binding to recombinant MTr1 (thermal shift)” value (human Mtr1 [3]) was “directly binds to the recombinant MTr1” and the “anti-IAV activity, rank among 12 commercially available compounds (GFP level)” value (IAV-GFP SC35M strain) was “identified as the most effective compound”. For the same compound, the “inhibition of IAV-GFP (GFP level), dose dependence” value (IAV-GFP SC35M strain) was “the inhibition depended on the dose at 0.1 to 100 µM”, the “change in body weight” value [4] was “caused a significant body weight loss” and the “toxicity (WST-8)” value (A549 cells; A549 infected with IAV-GFP, 19 hours, tubercidin 0.1 to 100 µM) was “the toxicity was slight”. For the same compound, the “effect on IBV infection” value (IBV; A549, compound added 3 hours before infection (FIG. 19(d))) was “had an effect on the IBV infectious disease”.

For trifluoromethyl tubercidin [TFMT], the “MTase activity of the recombinant MTr1 protein” value (human Mtr1 [2]) was “inhibited”, the “antiviral activity against HAZV (virus RNA, qRT-PCR)” value (HAZV [5]) was “does not exhibit an antiviral activity” and the “antiviral activity against STBV (virus RNA, qRT-PCR)” value (STBV) was “does not exhibit an antiviral activity”. The “induction of IFN-β or antiviral ISG (qRT-PCR)” value (IFN-β RNA) was “did not induce IFN-β or antiviral ISG”, the “IAV replication (GFP level), time of addition” value (IAV-GFP SC35M strain) was “significantly inhibited IAV replication; also recorded: the effect was reduced or could not be confirmed” and the “inhibition at the lowest concentration, secondary screening step 3” value (IAV-GFP SC35M strain) was “identified as the most effective compound”. The “synergistic effect with amantadine (GFP relative fluorescence units, combination index)” value (IAV-GFP SC35M strain; combination of TFMT and amantadine, […]) was “exhibited a synergistic effect”, the “synergistic effect with BXM (GFP relative fluorescence units, combination index)” value (IAV-GFP SC35M strain; combined treatment of TFMT and BXM, […]) was “a strong synergistic effect was observed” and the pIC50 (IAV-GFP SC35M strain; read-out: IC50 for IAV infection) was 6.52. The “HAZV replication (HAZV RNA, qRT-PCR)” value (HAZV [6]) was “did not inhibit HAZV replication”, the “cell cytotoxicity in NHBE cells (histological analysis)” value (IAV PR8 strain [7]) was “without cell cytotoxicity” and the “RNA level of IAV (segment 7, qRT-PCR)” value (IAV PR8 strain [7]; [9]) was “significantly reduced in a dosage-dependent manner”. The “protein level of IAV (Western blot)” value (IAV PR8 strain [7]; [9]) was “significantly reduced in a dosage-dependent manner”, the “IAV NP level (immunostaining)” value (IAV PR8 strain [7]; NHBE cells, m.o.i. 2, 24 hours, 10 µM TFMT) was “significantly decreased” and the “change in body weight” value [4] was “does not cause body weight loss or cell cytotoxicity”. For the same compound, the “IAV NP level in the mouse lung (IAV RNA segment 5, qRT-PCR)” value (IAV WSN) was “significantly reduced”, the “PB2 mRNA level in the mouse lung (IAV RNA segment 1, qRT-PCR)” value (IAV WSN) was “significantly reduced” and the “cell cytotoxicity of combined treatment (WST-8)” value (A549 cells) was “without cell cytotoxicity”. The “in vitro toxicity (WST-8 cell survival rate assay)” value (A549 cells; A549, within the effective concentration range) was “no significant in vitro toxicity was confirmed within the effective concentration range”, the “antiviral activity against IAV (virus RNA, qRT-PCR)” value (IAV PR8 strain [8]; A549, m.o.i. 1, 24 hours) was “exhibits an antiviral activity” and the “dependence of the effect on IAV replication on innate immune factors (IAV RNA segment 7)” value (IAV PR8 strain [8]; A549, m.o.i. 1, 24 hours (FIG. 29)) was “independent of the IFIT1-dependent isolation of RNA or RIG-I/MDA5 signaling”. The “antiviral activity against IBV (virus RNA, qRT-PCR)” value (IBV; A549, m.o.i. 1, 24 hours) was “exhibits an antiviral activity”.
